The results in this text go back to patent publication US11976065B2 (CELISTA PHARMACEUTICALS LLC, priority 2020, dated 2024).

The nature of this data set: pH of the samples in water, pH probe. Particulars: aqueous sample. It counts as physicochemical.

Regarding `CC(C)Cn1cnc2c(N)nc3ccccc3c21` [Imiquimod, 1-(2-methylpropyl)-1H-imidazo[4,5-c]quinolin-4-amine], the pH worked out at 7.10.
